Molecular target: T1, 11β-HSD 1 (Homo sapiens, UniProt P28845)
T1 construct: detecting cortisol generated from cortisterone by human liver microsomes; from tissue; host or cells: human liver microsomes
Experiment: In vitro inhibition of 11β-HSD 1, HTRF detection of cortisol generated by human liver microsomes
Type: biochemical
Details: 1 μM test compound, 100% indicates no inhibition, zero or below zero indicates complete inhibition (relative to carbenoxolone)
Protocol: Briefly, compounds were incubated for 1 hour at 37° C. in Tris buffer (20 mM tris, 5 mM EDTA, pH 6.0) containing NADPH (200 μM) and cortisone (80 nM). Cortisol generated in the reaction is then detected with a competitive immunoassay, involving two HTRF conjugates: cortisol linked to XL665 and anti-cortisol antibody labeled with Europium cryptate. The incubation period for detection reaction was typically 2 hours. The amount of cortisol is determined by reading the time-resolved fluorescence of the wells (Ex 320/75 nm; Em 615/8.5 nm and 665/7.5 nm). The ratio of the two emission signals is then calculated (Em665*10000/Em615). […] Each assay also contained a calibration curve with cortisol to transform the fluorescent data into cortisol concentrations. Percent inhibition of each compound was determined relative to the carbenoxolone signal. In Table 2 the 11β-HSD 1 inhibitory activities at 1 μM concentration of test compound, determined as described above, of the compounds listed in Table 3 are compiled, wherein 100% indicates no inhibition and a value of zero or below zero indicates complete inhibition.

T1 sequence (P28845 whole entry): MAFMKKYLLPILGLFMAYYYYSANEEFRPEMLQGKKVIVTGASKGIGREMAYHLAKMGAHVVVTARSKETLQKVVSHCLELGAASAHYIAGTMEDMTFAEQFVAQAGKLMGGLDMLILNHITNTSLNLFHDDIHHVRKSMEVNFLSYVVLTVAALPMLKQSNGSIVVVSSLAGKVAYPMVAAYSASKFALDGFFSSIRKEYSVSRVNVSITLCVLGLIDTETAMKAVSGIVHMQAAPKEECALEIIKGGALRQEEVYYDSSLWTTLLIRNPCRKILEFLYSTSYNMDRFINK

Row | SMILES | Inhibitory activity on 11β-HSD 1, % CTL [% CTL]
1 | CC(C)(C)Oc1cccc(C(=O)N2[C@@H]3CC[C@H]2C[C@@H](c2ccc(F)cc2)C3)c1 [Example 45, endo-(3-tert-Butoxy-phenyl)-[3-(4-fluoro-phenyl)-8-aza-bicyclo[3.2.1]oct-8-yl]-methanone] | 82
2 | O=C1Cc2ccc(C(=O)N3[C@@H]4CC[C@H]3C[C@@H](c3ccc(F)cc3)C4)cc2N1 [Example 46, endo-6-[3-(4-Fluoro-phenyl)-8-aza-bicyclo[3.2.1]octane-8-carbonyl]-1,3-dihydro-indol-2-one] | 97
3 | O=C1Cc2cc(C(=O)N3[C@@H]4CC[C@H]3C[C@@H](c3ccc(F)cc3)C4)ccc2N1 [Example 47, endo-5-[3-(4-Fluoro-phenyl)-8-aza-bicyclo[3.2.1]octane-8-carbonyl]-1,3-dihydro-indol-2-one] | −17
4 | Nc1nc2cc(C(=O)N3[C@@H]4CC[C@H]3C[C@@H](c3ccc(F)cc3)C4)ccc2[nH]1 [Example 48, endo-(2-Amino-1H-benzoimidazol-5-yl)-[3-(4-fluoro-phenyl)-8-aza-bicyclo[3.2.1]oct-8-yl]-methanone] | 1
5 | CC(C)(C)Oc1ccc(C(=O)N2[C@@H]3CC[C@H]2C[C@@H](c2ccc(F)cc2)C3)cc1 [Example 49, endo-(4-tert-Butoxy-phenyl)-[3-(4-fluoro-phenyl)-8-aza-bicyclo[3.2.1]oct-8-yl]-methanone] | 67
6 | Cc1cc2cc(C(=O)N3[C@@H]4CC[C@H]3C[C@@H](c3ccc(F)cc3)C4)ccc2[nH]1 [Example 50, endo-[3-(4-Fluoro-phenyl)-8-aza-bicyclo[3.2.1]oct-8-yl]-(2-methyl-1H-indol-5-yl)-methanone] | 6
7 | CCn1ccc2ccc(C(=O)N3[C@@H]4CC[C@H]3C[C@@H](c3ccc(F)cc3)C4)cc21 [Example 51, endo-(1-Ethyl-1H-indol-6-yl)-[3-(4-fluoro-phenyl)-8-aza-bicyclo[3.2.1]oct-8-yl]-methanone] | 41
8 | Cc1[nH]c2cc(C(=O)N3[C@@H]4CC[C@H]3C[C@@H](c3ccc(F)cc3)C4)ccc2c1C [Example 52, endo-(2,3-Dimethyl-1H-indol-6-yl)-[3-(4-fluoro-phenyl)-8-aza-bicyclo[3.2.1]oct-8-yl]-methanone] | 82
9 | Cn1ccc2ccc(C(=O)N3[C@@H]4CC[C@H]3C[C@@H](c3ccc(F)cc3)C4)cc21 [Example 53, endo-[3-(4-Fluoro-phenyl)-8-aza-bicyclo[3.2.1]oct-8-yl]-(1-methyl-1H-indol-6-yl)-methanone] | −55
10 | O=C(c1ccc2c(c1)CCCN2)N1[C@@H]2CC[C@H]1C[C@@H](c1ccc(F)cc1)C2 [Example 54, endo-[3-(4-Fluoro-phenyl)-8-aza-bicyclo[3.2.1]oct-8-yl]-(1,2,3,4-tetrahydro-quinolin-6-yl)-methanone] | −56
11 | Cc1ccc(C(=O)N2[C@@H]3CC[C@H]2C[C@@H](c2ccc(F)cc2)C3)cc1O [Example 55, endo-[3-(4-Fluoro-phenyl)-8-aza-bicyclo[3.2.1]oct-8-yl]-(3-hydroxy-4-methyl-phenyl)-methanone] | 31
12 | O=C(c1ccccc1F)N1[C@@H]2CC[C@H]1C[C@@H](c1ccc(F)cc1)C2 [Example 57, endo-(2-Fluoro-phenyl)-[3-(4-fluoro-phenyl)-8-aza-bicyclo[3.2.1]oct-8-yl]-methanone] | 63
13 | CC(=O)Cc1ccc(C(=O)N2[C@@H]3CC[C@H]2C[C@@H](c2ccc(F)cc2)C3)cc1 [Example 58, endo-1-{4-[3-(4-Fluoro-phenyl)-8-aza-bicyclo[3.2.1]octane-8-carbonyl]-phenyl}-propan-2-one] | 68

Reference: patent US8609690B2, “Aryl- and heteroarylcarbonyl derivatives of substituted nortropanes, medicaments containing such compounds and their use” (Boehringer Ingelheim International GmbH, priority 2008, dated 2013)
